{"source": "patent US20170166555A1", "about": "“FUNCTIONALISED AND SUBSTITUTED INDOLES AS ANTI-CANCER AGENTS” (Novogen Limited, priority 2013, published 2017)", "key": {"[1]": {"system": "neuroblastoma (SH-EP) cells", "assay": "Cell viability assay (MTT, 48 hr)", "assay_type": "cell-based", "settings": "48 hr treatment, read-out: IC50 (μM) SHEP", "description": "(§1) Cell viability assays were also conducted to assess the anti-proliferative effects of the anti-tropomyosin compounds 4001-4015. Briefly, cells (1×10^3/well) were plated (96-well) and treated (48 hr) with anti-tropomyosin drug and viability measured using 3-(4,5-dimethylthiazol-2-yl)-2,5-diphenylterazolium bromide MTT. Cell viability was normalized to control (vehicle alone) and dose-response curves, and half maximal effective concentration (EC50) values were determined using Graph Pad Prism 5 (nonlinear regression sigmoidal dose-response variable slope)."}, "[2]": {"system": "melanoma (SK-Mel-28) cells", "assay": "Cell viability assay (MTT, 48 hr)", "assay_type": "cell-based", "settings": "Homo sapiens, 48 hr treatment, read-out: IC50 (μM) SKMEL28", "description": "as §1"}}}
{"compound": "Cc1c(C)n(CCCN(C)C)c2ccc(CN3CCN(CCc4ccccc4)CC3)cc12", "note": "[Compound 4015, 3-(2,3-dimethyl-5-((4-phenethylpiperazin-1-yl)methyl)-1H-indol-1-yl)-N,N-dimethylpropan-1-amine]", "values": [{"measurement": "IC50", "setting": "[1]", "value": 4.6, "unit": "µM"}, {"measurement": "IC50", "setting": "[2]", "value": 6.4, "unit": "µM"}]}
